Measured values as given in ChEMBL document CHEMBL3727367, “Hydrazide compounds” (2007).
Blank lines part the entries; values can stand above or below the compound they belong to. Active and inactive are the calls of the source. The calls are words filed in the database; no cut-off is given here.

Legend:
Felis catus [1] = assay: Antiglaucoma activity in cat assessed as decrease of hyperemia administered topically; assay type: functional, organism-based
[2] = molecular target: T1, Beta-adrenergic receptor kinase 1 (Homo sapiens) (UniProt P25098); assay: Inhibition of GRK2 in HEK293 cells overexpressing beta 2 adrenergic receptor assessed as increase in c-AMP accumulation in presence of isoproterenol; assay type: cell-based
T1 sequence (whole entry): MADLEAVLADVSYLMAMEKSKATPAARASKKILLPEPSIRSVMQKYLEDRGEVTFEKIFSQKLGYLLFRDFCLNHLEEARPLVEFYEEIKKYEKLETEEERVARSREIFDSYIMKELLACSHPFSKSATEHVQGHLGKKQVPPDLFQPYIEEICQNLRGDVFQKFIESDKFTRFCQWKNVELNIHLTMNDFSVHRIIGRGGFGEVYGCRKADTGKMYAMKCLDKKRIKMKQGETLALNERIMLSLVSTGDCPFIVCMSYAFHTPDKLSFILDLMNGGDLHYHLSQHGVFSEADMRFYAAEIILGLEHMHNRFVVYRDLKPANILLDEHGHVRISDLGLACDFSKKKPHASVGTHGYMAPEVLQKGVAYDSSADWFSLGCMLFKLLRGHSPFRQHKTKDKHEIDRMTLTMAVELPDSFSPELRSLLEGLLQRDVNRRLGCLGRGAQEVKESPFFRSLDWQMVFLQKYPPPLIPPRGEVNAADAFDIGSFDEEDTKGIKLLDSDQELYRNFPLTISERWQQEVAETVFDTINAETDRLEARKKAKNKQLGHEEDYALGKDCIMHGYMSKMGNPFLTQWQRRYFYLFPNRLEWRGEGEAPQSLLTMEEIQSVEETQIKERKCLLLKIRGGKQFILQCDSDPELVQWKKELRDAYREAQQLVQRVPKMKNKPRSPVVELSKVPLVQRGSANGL

Felis catus [3] = assay: Antiglaucoma activity in cat assessed as decrease of redness administered topically; assay type: functional, organism-based
Felis catus [4] = assay: Antiglaucoma activity in cat assessed as decrease of ocular irritation administered topically; assay type: functional, organism-based; conditions: Eye
[5] = molecular target: T2, Protein-serine/threonine kinase (Sus scrofa) (UniProt F1RUX3); assay: Inhibition of GRK2 in porcine trabecular meshwork cells assessed as F-actin depolymerization at 50 uM after 20 mins by Alexa-fluor 488-labelled phalloidin/DAPI staining assay relative to control
T2 sequence (whole entry): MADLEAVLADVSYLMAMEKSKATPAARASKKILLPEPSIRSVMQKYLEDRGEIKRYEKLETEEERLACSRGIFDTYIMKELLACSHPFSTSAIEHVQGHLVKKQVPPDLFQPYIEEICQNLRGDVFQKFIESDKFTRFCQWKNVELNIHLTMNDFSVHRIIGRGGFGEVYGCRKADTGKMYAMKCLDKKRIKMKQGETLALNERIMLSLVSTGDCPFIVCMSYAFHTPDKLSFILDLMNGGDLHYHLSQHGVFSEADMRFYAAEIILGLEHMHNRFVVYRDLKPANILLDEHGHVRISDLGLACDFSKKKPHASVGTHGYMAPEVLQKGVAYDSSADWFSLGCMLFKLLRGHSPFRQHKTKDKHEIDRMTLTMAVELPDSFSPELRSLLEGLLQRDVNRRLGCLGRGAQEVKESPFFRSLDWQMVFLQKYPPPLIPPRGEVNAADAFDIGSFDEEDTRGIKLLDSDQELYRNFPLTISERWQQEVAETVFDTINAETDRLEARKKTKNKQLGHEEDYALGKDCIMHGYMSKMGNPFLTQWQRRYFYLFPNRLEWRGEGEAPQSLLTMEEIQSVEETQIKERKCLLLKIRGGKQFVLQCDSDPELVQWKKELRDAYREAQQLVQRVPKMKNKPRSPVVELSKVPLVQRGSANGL

[6] = molecular target: G protein-coupled receptor kinase 6 (Homo sapiens, UniProt P43250); assay: Inhibition of GRK6 (unknown origin) after 90 to 120 mins by Kinase-Glo assay
G protein-coupled receptor kinase 6, sequence (P43250 whole entry): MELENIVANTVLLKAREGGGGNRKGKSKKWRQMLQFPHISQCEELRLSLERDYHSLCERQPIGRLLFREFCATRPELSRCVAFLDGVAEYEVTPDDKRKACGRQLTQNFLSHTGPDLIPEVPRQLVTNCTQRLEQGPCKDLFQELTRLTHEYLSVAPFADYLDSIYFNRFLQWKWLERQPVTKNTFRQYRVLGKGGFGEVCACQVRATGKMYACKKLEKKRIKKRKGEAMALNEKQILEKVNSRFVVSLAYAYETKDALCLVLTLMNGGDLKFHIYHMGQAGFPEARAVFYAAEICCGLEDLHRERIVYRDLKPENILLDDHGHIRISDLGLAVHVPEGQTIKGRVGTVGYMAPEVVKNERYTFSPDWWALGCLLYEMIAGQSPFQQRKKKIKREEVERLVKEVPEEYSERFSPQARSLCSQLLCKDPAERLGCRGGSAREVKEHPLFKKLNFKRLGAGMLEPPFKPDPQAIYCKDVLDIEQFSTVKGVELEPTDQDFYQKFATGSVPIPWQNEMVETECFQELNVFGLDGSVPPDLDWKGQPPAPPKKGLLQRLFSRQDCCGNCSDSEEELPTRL

Felis catus [7] = assay: Antiglaucoma activity in cat assessed as decrease in intraocular pressure administered topically 4 times per day on eye measured after 1 to 23 hrs by pneumatonometer; assay type: functional, organism-based
[8] = molecular target: T3, Beta-adrenergic receptor kinase 1 (Homo sapiens, UniProt P25098); assay: Inhibition of human GRK2 after 90 to 120 mins by Kinase-Glo assay
T3 sequence (P25098 whole entry): T1 sequence (whole entry)

Felis catus [9] = assay: Antiglaucoma activity in cat assessed as decrease of allergic symptoms administered topically twice per day on eye; assay type: functional, organism-based
Felis catus [10] = assay: Antiglaucoma activity in cat assessed as decrease of dry eye syndrome administered topically twice per day on eye; assay type: functional, organism-based
Felis catus [11] = assay: Antiglaucoma activity in cat assessed as decrease in intraocular pressure administered topically twice per day on eye measured after 1 to 23 hrs by pneumatonometer; assay type: functional, organism-based
[12] = molecular target: G protein-coupled receptor kinase 5 (Homo sapiens, UniProt P34947); assay: Inhibition of GRK5 (unknown origin) after 90 to 120 mins by Kinase-Glo assay
G protein-coupled receptor kinase 5, sequence (P34947 whole entry): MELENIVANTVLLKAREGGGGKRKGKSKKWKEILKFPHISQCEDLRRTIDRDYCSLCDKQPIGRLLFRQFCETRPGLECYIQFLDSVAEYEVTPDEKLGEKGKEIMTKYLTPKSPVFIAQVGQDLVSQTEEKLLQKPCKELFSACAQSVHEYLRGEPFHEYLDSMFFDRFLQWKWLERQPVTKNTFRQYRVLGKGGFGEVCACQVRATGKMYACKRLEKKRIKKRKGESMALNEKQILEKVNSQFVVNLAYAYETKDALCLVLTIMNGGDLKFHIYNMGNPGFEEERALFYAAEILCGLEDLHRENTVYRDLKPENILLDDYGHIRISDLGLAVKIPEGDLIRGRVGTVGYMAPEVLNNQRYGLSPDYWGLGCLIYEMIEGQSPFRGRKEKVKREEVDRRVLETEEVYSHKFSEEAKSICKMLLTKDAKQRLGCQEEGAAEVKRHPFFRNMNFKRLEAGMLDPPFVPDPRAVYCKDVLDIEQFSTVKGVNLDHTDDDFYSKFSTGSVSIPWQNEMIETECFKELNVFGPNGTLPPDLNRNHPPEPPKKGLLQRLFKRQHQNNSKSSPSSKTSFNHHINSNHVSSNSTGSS

Compound: NC(=O)c1cccc(NCC(=O)N/N=C/c2ccncc2)c1
- Activity (Felis catus [1]): Active
- inhibition [2]: Active
- Activity (Felis catus [3]): Active
- Activity (Felis catus [4]): Active

Compound: O=C(CNc1cccc(OCc2ccccc2)c1)N/N=C/c1ccncc1
- Ki [6]: > 10 µM

Compound: O=C(CNc1cccc(C(=O)Nc2cccnc2)c1)N/N=C/c1ccncc1
- GRK2 inhibition activity call (active/not active) [5]: Active

Compound: O=C(CNc1cccc(C(=O)NCCN2CCOCC2)c1)N/N=C/c1c(Cl)cncc1Cl
- GRK2 inhibition activity call (active/not active) [5]: inactive

Compound: O=C(CNc1cccc(C(=O)NCCN2CCOCC2)c1)N/N=C/c1ccncc1
- Activity (Felis catus [7]): Active

Compound: COc1cc(/C=N/NC(=O)CNc2cccc(Cl)c2)nc(OC)n1
- GRK2 inhibition activity call (active/not active) [5]: inactive

Compound: Cc1ccc(Oc2cccc(NCC(=O)N/N=C/c3ccncc3)c2)cc1
- Activity (Felis catus [9]): Active
- Activity (Felis catus [10]): Active

Compound: C/C(=N\NC(=O)CNc1cccc(C(=O)Nc2ccccc2)c1)c1ccncc1
- GRK2 inhibition activity call (active/not active) [5]: inactive

Compound: NC(=O)c1ccc(NCC(=O)N/N=C/c2c(Cl)cncc2Cl)cc1
- Activity (Felis catus [11]): Active

Compound: O=C(CNc1cccc(C(=O)Nc2ccccc2)c1)N/N=C/c1ccncc1
- Ki [12]: > 10 µM
- GRK2 inhibition activity call (active/not active) [5]: Active

Results, then the compound that gave them:

- GRK2 inhibition activity call (active/not active) [5]: inactive
Compound: CNC(=O)c1cccc(NCC(=O)N/N=C/c2c(Cl)cncc2Cl)c1

- Ki [6]: > 10 µM
- GRK2 inhibition activity call (active/not active) [5]: Active
Compound: O=C(CNc1cccc(C(=O)Nc2ccccc2)c1)N/N=C/c1c(Cl)cncc1Cl

- Ki [8]: > 10 µM
Compound: CCc1cccc(NCC(=O)N/N=C/c2c(Cl)cncc2Cl)c1

- GRK2 inhibition activity call (active/not active) [5]: inactive
Compound: COc1ccc(Oc2cccc(NCC(=O)NN=Cc3ccncc3)c2)cc1 (mixture of isomers)

- GRK2 inhibition activity call (active/not active) [5]: inactive
Compound: O=C(CNc1ccc(Oc2ccccc2)cc1)N/N=C/c1c(Cl)cncc1Cl
